Experimental findings from patent publication US9260439B2, “Dihydropyrrolopyrimidine derivatives” (PFIZER INC., priority 2014, dated 2016) are described below.

The test addresses truncated PI3Kα (p110α/iSH2 p85α) (Homo sapiens (Human), UniProt P42336). The experiment in a line: PI3KA_Act fluorescence polarization kinase assay (Ki). It is filed as biochemical. To be noted: 1 mM ATP. The essentials: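 p110α/iSH2 p85α (0.5 nM) was reacted with 30 μM sonicated PIP2 in 50 mM HEPES pH 7.4, 150 mM NaCl, 5 mM MgCl2, 1 mM DTT and 0.05% CHAPS for 30 min at room temperature, then stopped with EDTA. PIP3 was detected by fluorescence polarization (GST-Grp1 PH domain/TAMRA-PIP3), and Ki came from a Morrison tight-binding fit.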
A general note: Polarisation of emitted light reports the rotation of a fluorescent probe.

Where only a bound is given, the exact number is not on record here.

Sequence of truncated PI3Kα (p110α/iSH2 p85α) (P42336 whole entry, the tested form may be a part): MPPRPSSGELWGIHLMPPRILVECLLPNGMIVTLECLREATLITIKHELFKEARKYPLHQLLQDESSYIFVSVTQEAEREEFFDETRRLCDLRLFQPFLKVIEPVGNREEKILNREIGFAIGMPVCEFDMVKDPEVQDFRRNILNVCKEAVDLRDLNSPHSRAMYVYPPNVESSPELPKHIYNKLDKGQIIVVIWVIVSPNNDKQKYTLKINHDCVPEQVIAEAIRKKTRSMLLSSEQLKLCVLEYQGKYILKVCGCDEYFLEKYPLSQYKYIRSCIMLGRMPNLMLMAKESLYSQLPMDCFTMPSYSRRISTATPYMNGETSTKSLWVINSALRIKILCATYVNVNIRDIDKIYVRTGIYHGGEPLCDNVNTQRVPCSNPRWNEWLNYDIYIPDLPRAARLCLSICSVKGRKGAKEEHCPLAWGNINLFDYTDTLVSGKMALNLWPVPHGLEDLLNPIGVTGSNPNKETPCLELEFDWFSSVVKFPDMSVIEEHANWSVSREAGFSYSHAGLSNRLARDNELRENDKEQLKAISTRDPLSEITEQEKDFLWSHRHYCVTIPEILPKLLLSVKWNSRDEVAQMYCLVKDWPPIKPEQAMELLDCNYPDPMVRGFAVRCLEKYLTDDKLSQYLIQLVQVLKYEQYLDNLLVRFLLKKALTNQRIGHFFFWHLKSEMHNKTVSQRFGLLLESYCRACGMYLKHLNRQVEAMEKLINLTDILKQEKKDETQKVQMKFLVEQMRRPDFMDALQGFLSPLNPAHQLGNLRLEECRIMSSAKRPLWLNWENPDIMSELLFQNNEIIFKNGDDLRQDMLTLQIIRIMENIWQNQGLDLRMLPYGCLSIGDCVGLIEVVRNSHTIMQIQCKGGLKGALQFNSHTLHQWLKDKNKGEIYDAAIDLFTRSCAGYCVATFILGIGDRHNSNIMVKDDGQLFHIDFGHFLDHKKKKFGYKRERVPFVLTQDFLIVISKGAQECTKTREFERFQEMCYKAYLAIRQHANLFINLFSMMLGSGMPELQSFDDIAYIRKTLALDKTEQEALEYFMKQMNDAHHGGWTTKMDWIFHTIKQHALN

Turning to `CC(C)(O)CN1CC[C@@](C)(N2CCc3c(-c4cnc(N)nc4)nc(N4CCOCC4)nc32)C1` [Example 276, 1-{(3R)-3-[4-(2-aminopyrimidin-5-yl)-2-(morpholin-4-yl)-5,6-dihydro-7H-pyrrolo[2,3-d]pyrimidin-7-yl]-3-methylpyrrolidin-1-yl}-2-methylpropan-2-ol], the “PI3KA_Act Ki” value stood at 0.182 nM. `COC(C)(C)C(=O)N1CC[C@](C)(N2CCc3c(-c4cnc(N)nc4)nc(N4CCOCC4)nc32)C1` [Example 278, 1-{(3S)-3-[4-(2-aminopyrimidin-5-yl)-2-(morpholin-4-yl)-5,6-dihydro-7H-pyrrolo[2,3-d]pyrimidin-7-yl]-3-methylpyrrolidin-1-yl}-2-methoxy-2-methylpropan-1-one]: the “PI3KA_Act Ki” value is listed as under 0.018 nM.

With `COCC(=O)N1CC[C@](C)(N2CCc3c(-c4cnc(N)nc4)nc(N4CCOCC4)nc32)C1` [Example 279, 1-{(3S)-3-[4-(2-aminopyrimidin-5-yl)-2-(morpholin-4-yl)-5,6-dihydro-7H-pyrrolo[2,3-d]pyrimidin-7-yl]-3-methylpyrrolidin-1-yl}-2-methoxyethanone], the “PI3KA_Act Ki” value stood at 0.027 nM. The value for `COCC(=O)N1CC[C@@](C)(N2CCc3c(-c4cnc(N)nc4)nc(N4CCOCC4)nc32)C1` [Example 280, 1-{(3R)-3-[4-(2-aminopyrimidin-5-yl)-2-(morpholin-4-yl)-5,6-dihydro-7H-pyrrolo[2,3-d]pyrimidin-7-yl]-3-methylpyrrolidin-1-yl}-2-methoxyethanone] was 0.154 nM; that for `CC(C)(N)CC(=O)N1CC[C@](C)(N2CCc3c(-c4cnc(N)nc4)nc(N4CCOCC4)nc32)C1.Cl` [Example 281, 3-amino-1-{(3S)-3-[4-(2-aminopyrimidin-5-yl)-2-(morpholin-4-yl)-5,6-dihydro-7H-pyrrolo[2,3-d]pyrimidin-7-yl]-3-methylpyrrolidin-1-yl}-3-methylbutan-1-one hydrochloride] was 0.024 nM.

Take `CC(C)(N)C(=O)N1CC[C@@H](N2CCc3c(-c4cnc(N)nc4)nc(N4CCOCC4)nc32)C1.Cl` [Example 282, 2-amino-1-{(3R)-3-[4-(2-aminopyrimidin-5-yl)-2-(morpholin-4-yl)-5,6-dihydro-7H-pyrrolo[2,3-d]pyrimidin-7-yl]pyrrolidin-1-yl}-2-methylpropan-1-one hydrochloride]: the “PI3KA_Act Ki” value is 4.040 nM. The figure for `CC(C)(N)C(=O)N1CC[C@H](N2CCc3c(-c4cnc(N)nc4)nc(N4CCOCC4)nc32)C1.Cl` [Example 283, 2-amino-1-{(3S)-3-[4-(2-aminopyrimidin-5-yl)-2-(morpholin-4-yl)-5,6-dihydro-7H-pyrrolo[2,3-d]pyrimidin-7-yl]pyrrolidin-1-yl}-2-methylpropan-1-one hydrochloride] is 0.208 nM; for `CC[C@@]1(N2CCc3c(-c4cnc(N)nc4)nc(N4CCOCC4)nc32)CCN(C(=O)C(C)(C)N)C1.Cl` [Example 284, 2-amino-1-{(3R)-3-[4-(2-aminopyrimidin-5-yl)-2-(morpholin-4-yl)-5,6-dihydro-7H-pyrrolo[2,3-d]pyrimidin-7-yl]-3-ethylpyrrolidin-1-yl}-2-methylpropan-1-one hydrochloride] it is 0.368 nM. The figure for `CC[C@]1(N2CCc3c(-c4cnc(N)nc4)nc(N4CCOCC4)nc32)CCN(C(=O)C(C)(C)N)C1.Cl` [Example 285, 2-amino-1-{(3S)-3-[4-(2-aminopyrimidin-5-yl)-2-(morpholin-4-yl)-5,6-dihydro-7H-pyrrolo[2,3-d]pyrimidin-7-yl]-3-ethylpyrrolidin-1-yl}-2-methylpropan-1-one hydrochloride] is 0.089 nM; for `CC(C)[C@@H](N)C(=O)N1CC[C@@H](N2CCc3c(-c4cnc(N)nc4)nc(N4CCOCC4)nc32)C1.Cl` [Example 286, (2R)-2-amino-1-{(3R)-3-[4-(2-aminopyrimidin-5-yl)-2-(morpholin-4-yl)-5,6-dihydro-7H-pyrrolo[2,3-d]pyrimidin-7-yl]pyrrolidin-1-yl}-3-methylbutan-1-one hydrochloride] it is 5.810 nM.
